Each compound was assayed against Wild-type IDH1 (Homo sapiens (Human), UniProt O75874) (assay: Biochemical assay for wild-type IDH1 enzyme (isocitrate to αKG)). Settings: mean ± SEM.
Protocol: IDH1 and IDH2 enzymes catalyze the conversion of isocitrate to αKG. Wild-type IDH1 (National Center for Biotechnology Information, Accession: NP_001269316.1) and IDH2 (National Center for Biotechnology Information, Accession: EAX02082.1) proteins containing N-terminal His-tag are expressed in E. coli and purified using nickel affinity chromatography by methods commonly used and well known to those skilled in the art. The enzyme assays are carried out in V-bottom 96 well polypropylene plates containing 100 mM Tris-HCl buffer at pH 7.5, 1 mM DTT, 0.005% TRITON™ X-100, 120 mM NaCl. For the IDH1 wild-type assay isocitrate, NADP^+ and MnCl2 are included at the concentrations of 85 μM, 50 μM and 20 μM respectively. For the IDH2 wild-type assay isocitrate, NADP^+ and MnCl2 are included at the concentrations of 30 μM, 50 μM and 10 μM respectively. Inhibitors dissolved in a DMSO stock solution are diluted in the reaction mixture at a final DMSO concentration of 4%. The enzyme assay is terminated (quenched) by adding ACN (50:50) containing d (d6-αKG) as an internal standard for mass spectrometry analysis. Ten microliters of reaction mixture is combined with 100 μL of water, 50 μL of 1 M O-benzylhydroxylamine in pyridine buffer (8.6% pyridine, pH 5), and 50 μL of 1 M EDC in pyridine buffer. Following derivatization at room temperature for one hour, samples are extracted with EtOAc (600 μL). […] of the upper layer is removed, dried under heated nitrogen, and reconstituted with MeOH/water (1:1) (100 μL). Ten μL of derivatized sample is injected onto an LC-MS system consisting of a Shimadzu Prominence 20A HPLC system and a Thermo Quantum Ultra™ triple quadrupole mass spectrometer. Analytes are separated on a Waters XBridge™ C18 column (2.1×50 mm, […]) with a flow rate of 0.6 mL/minute. Mobile phase A is 0.1% formic acid in water and mobile phase B is MeOH. The αKG signal detected is transformed into analyte concentration using a calibration curve generated using known αKG concentrations. […] IC50 values are obtained from the individual % inhibition values at different compound concentrations using a 4-parameter equation. These calculations are carried out using Activity Base (IDBS) or Screener (Genedata) data analysis programs.

Chain of Wild-type IDH1 (O75874 whole entry): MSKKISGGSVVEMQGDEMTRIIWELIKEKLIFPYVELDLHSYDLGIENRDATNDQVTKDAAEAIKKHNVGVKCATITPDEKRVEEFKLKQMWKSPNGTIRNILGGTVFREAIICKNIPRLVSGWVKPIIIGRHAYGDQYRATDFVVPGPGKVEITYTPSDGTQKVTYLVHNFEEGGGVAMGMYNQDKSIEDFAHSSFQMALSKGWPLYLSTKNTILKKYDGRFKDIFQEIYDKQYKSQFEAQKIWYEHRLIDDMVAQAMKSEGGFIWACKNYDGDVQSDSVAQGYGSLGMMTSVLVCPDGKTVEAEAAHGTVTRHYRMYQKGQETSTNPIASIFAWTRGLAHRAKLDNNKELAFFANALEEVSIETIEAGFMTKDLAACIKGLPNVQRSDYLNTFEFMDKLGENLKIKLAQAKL

Point of comparison: C=CC(=O)N1CCN(Cc2ccc([C@H](C)Nc3nccc(N4C(=O)OC[C@@H]4C(C)C)n3)cc2)CC1 [Example 1, (S)-3-(2-(((S)-1-(4-((4-Acryloylpiperazin-1-yl)methyl)phenyl)ethyl)amino)pyrimidin-4-yl)-4-isopropyloxazolidin-2-one], IC50 1560 ± 200 nM. Against it:
- C=CC(=O)N1CCN(Cc2ccc([C@H](C)Nc3nc(F)cc(N4C(=O)OCC4(C)C)n3)cc2)CC1 [Example 11, (S)-3-(2-((1-(4-((4-acryloylpiperazin-1-yl)methyl)phenyl)ethyl)amino)-6-fluoropyrimidin-4-yl)-4,4-dimethyloxazolidin-2-one] — within 1.5-fold, 2200 nM
- C=CC(=O)N1CCN(Cc2ccc([C@H](C)Nc3nccc(N4C(=O)OC[C@@H]4CC)n3)cc2)CC1 [Example 2, (S)-3-(2-(((S)-1-(4-((4-acryloylpiperazin-1-yl)methyl)phenyl)ethyl)amino)pyrimidin-4-yl)-4-ethyloxazolidin-2-one] — 2-fold higher, 3150 ± 70 nM
- C=CC(=O)N1CCN(Cc2ccc([C@H](C)Nc3nccc(N4C(=O)OCC4(C)C)n3)cc2)CC1 [Example 4, (S)-3-(2-((1-(4-((4-acryloylpiperazin-1-yl)methyl)phenyl)ethyl)amino)pyrimidin-4-yl)-4,4-dimethyloxazolidin-2-one] — 4.3-fold higher, 6760 ± 1350 nM
- C=CC(=O)N1CCN(Cc2ccc([C@H](C)Nc3ncc(F)c(N4C(=O)OC[C@@H]4C(C)C)n3)cc2)CC1 [Example 5, (S)-3-(2-(((S)-1-(4-((4-acryloylpiperazin-1-yl)methyl)phenyl)ethyl)amino)-5-fluoropyrimidin-4-yl)-4-isopropyloxazolidin-2-one] — 1.6-fold higher, 2460 ± 300 nM
- C=CC(=O)N1CCN(Cc2ccc([C@H](C)Nc3nccc(N4C(=O)OC[C@@H]4C)n3)cc2)CC1 [Example 3, (S)-3-(2-(((S)-1-(4-((4-acryloylpiperazin-1-yl)methyl)phenyl)ethyl)amino)pyrimidin-4-yl)-4-methyloxazolidin-2-one] — 9.9-fold higher, 15500 ± 500 nM
- C=CC(=O)N1CCN(C(CC2CC2)c2ccc([C@H](C)Nc3nccc(N4C(=O)OC[C@@H]4[C@@H](C)O)n3)cc2)CC1 (stereo partly shown) [Example 26] — 11-fold lower, 145 nM

From patent US10696665B2, “Mutant IDH1 inhibitors” (Eli Lilly and Company, priority 2016, dated 2020)
